Where “and” joins values, the source holds several entries; their conditions need not be identical. Equal values may be shown once.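 Cultured in 96-well plates, cells were exposed to test compound for 48 hours across five concentrations. TGI: total growth inhibition.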
How the values were obtained:
Test in all cases: NCI anticancer screen, dose series, 48 h
A498 renal = system: A498 renal
ACHN renal = system: ACHN renal
BT-549 breast = system: BT-549 breast
COLO 205 colon = system: COLO 205 colon
EKVX NSCLC = system: EKVX NSCLC
HCC-2998 colon = system: HCC-2998 colon
LOX IMVI melanoma = system: LOX IMVI melanoma
M14 melanoma = system: M14 melanoma
MCF7 breast = system: MCF7 breast
MDA-MB-435 = system: MDA-MB-435
OVCAR-3 ovarian = system: OVCAR-3 ovarian
SW-620 colon = system: SW-620 colon
UACC-62 melanoma = system: UACC-62 melanoma
MDA-N = system: MDA-N

Structure (SMILES) | TGI (A498 renal) [µM] | TGI (ACHN renal) [µM] | TGI (BT-549 breast) [µM] | TGI (COLO 205 colon) [µM] | TGI (EKVX NSCLC) | TGI (HCC-2998 colon) [µM] | TGI (LOX IMVI melanoma) [µM] | TGI (M14 melanoma) [µM] | TGI (MCF7 breast) [µM] | TGI (MDA-MB-435) [µM] | TGI (OVCAR-3 ovarian) [µM] | TGI (SW-620 colon) [µM] | TGI (UACC-62 melanoma) [µM] | TGI (MDA-N) [µM]
CCCCCCC(=O)OC[n+]1ccc(-c2c(COC(=O)NC(C)C)c(COC(=O)NC(C)C)c3n2CCC3)cc1 | > 94.2 | > 100 | > 100 | > 100 | > 100 µM | > 100 | > 100 | > 100 | > 100 | > 100 | > 100 | > 100 | > 100 | 
O=C(c1ccccc1)c1ccc(N2C(=O)/C(=C/c3cccc(Oc4ccccc4)c3)N=C2c2ccccc2)c(N2C(=O)/C(=C/c3cccc(Oc4ccccc4)c3)N=C2c2ccccc2)c1 | > 100 | > 100 | > 100 | 37.1 | > 100 µM | 48.8 | > 100 | > 100 | 94.3 | 31.5 | 69.8 | > 100 | 24.5 | 69
COc1nc(=O)[nH]c2c1C(c1ccc([N+](=O)[O-])cc1)c1c(OC)nc(=O)[nH]c1O2 | > 100 | > 100 | > 100 | > 100 | > 100 µM |  |  | > 100 |  | > 100 | > 100 | > 100 | > 100 | > 100
CC(C)=CCC/C(C)=C/Cc1c2c(c3oc(-c4ccc(O)c(O)c4)c(O)c(=O)c3c1O)C=CC(C)(C)O2 | 12.9 | 7.83 | 15 | 5.33 |  |  |  | 9.42 | 11.4 | 12.6 | 6.34 |  | 12.4 | 11.4
O=C(O)C1=C(CO)Oc2cc3c(cc2C1c1ccc2c(c1)OCO2)OCO3 (configuration not stated) |  | > 100 |  | > 100 | > 100 µM |  | > 100 | > 100 |  |  | > 100 | > 100 | > 100 | 
CCCCC(CC)C(=O)Oc1ccc(C(=O)c2ccccc2)c(O)c1 (configuration not stated) | > 100 | > 100 | > 100 | > 100 | > 100 µM | > 100 | > 100 | > 100 | > 100 | > 100 | > 100 | > 100 | > 100 | > 100
CCn1c2ccccc2c2ccc(C3C4C(=O)N(c5cccc6ccccc56)C(=O)C4ON3C(C(N)=O)c3ccccc3)cc21 (configuration not stated) | 6.96 | > 25 | > 25 | > 25 | > 25 µM |  | > 25 | > 25 | > 25 | > 25 | > 25 | > 25 | > 25 | > 25
NC1=NC(c2ccc(Cl)cc2)=CC(c2cccc(Cl)c2)S1 (configuration not stated) |  | 59.9 | > 100 | 33.1 | 96.9 µM | 80.9 | 99.1 | > 100 | > 100 | 38.9 | > 100 | > 100 | 51.4 | 52.9
Cc1ccc(C(=O)NC2C(=O)NC(C(C)C)C(=O)N3CCCC3C(=O)N(C)CC(=O)N(C)C(C(C)C)C(=O)OC2C)c2c1Oc1c(c(C(=O)NC3C(=O)NC(C(C)C)C(=O)N4CCCC4C(=O)N(C)CC(=O)N(C)C(C(C)C)C(=O)OC3C)c3nc(-c4ccccc4)c(=O)oc3c1C)N2 (configuration not stated) | 0.00273 | 0.801 | 0.0224 | 0.0295 | 0.0944 µM and 0.0316 µM | 0.00428 |  |  | 0.0116 | 0.0193 |  | 12 |  | 0.0236
CCOC(=O)N1c2ccccc2N(C(=O)OCC)C1CC(=O)/C=C/c1ccccc1 | 10.6 | 15.7 | 9.84 | 4.17 | 8.54 µM | 10.6 | 7.06 | 19.3 | 13.6 | 8.11 | 9.95 | 25 | 10.2 | 15.8
CC1CC(C)(O)C2C3(C)CCCC2(COC3=O)C12CCC1(CCOC1=O)O2 (configuration not stated) | 248 |  |  | > 250 | > 250 µM | > 250 | > 250 |  | > 250 |  | > 250 | > 250 | > 250 | 
COC(=O)[C@]12CC[C@H]3CN(S(=O)(=O)c4ccc(C)cc4)[C@H]([C@H]31)[C@H](c1ccco1)N2S(=O)(=O)c1ccc(C)cc1 | > 100 | > 100 | 91.6 | 45.3 | > 100 µM | > 100 | > 100 | 92.4 | > 100 | 55.8 | > 100 | > 100 | 69.3 | 73.7
CCOC(=O)C(C(=O)OCC)c1cc(-c2cc3ccccc3o2)oc(=O)c1C#N | 70.1 | > 100 |  | 48.7 | > 100 µM | 46.9 | 31.8 | 36.9 |  |  |  | 52.6 |  | 
CCCCC/C=C\C=C\CCCCCCCCC(=O)OC | > 100 | > 100 | > 100 | > 100 | > 100 µM |  | 87.9 | > 100 | > 100 |  | > 100 | > 100 |  | > 100
Nc1[nH]c(=O)nc2c1cnn2COCCO | > 100 | > 100 |  | > 100 | > 100 µM |  | > 100 | > 100 |  |  |  | > 100 |  | 
C/C(=C\[Si](C)(C)c1ccco1)C(C)(O)[C@H](C)O (some centres not stated) | > 100 | > 100 |  | > 100 | > 100 µM | > 100 | > 100 | > 100 | > 100 | > 100 | > 100 | > 100 | > 100 | > 100

Reference: PubChem BioAssay (NCI)
